Consider two compounds from patent US9795644B2, “Reduction of in vitro genotoxicity of pollen extracts by removal of flavonoids” (STALLERGENES, priority 2009, dated 2017).

A short description of series [1]: incubation at 37° C. under MLA/TK conditions, deglycosylation followed by reverse phase HPLC. Format: physicochemical. The settings on record: 24 h at 37° C., in presence of grass pollen proteins; from peak areas. The method, then: Grass pollen flavonoids were first identified by reverse phase HPLC, according to their hydrophobicity. Reverse phase HPLC was performed on a Atlantis dC18 column, 4.6×250 mm, 5 μm, Waters, Milford, Mass., USA; with a gradient elution: 0.1% formic acid qsp water to 0.1% formic acid qsp acetonitrile in 30 min; flow rate: 1 mL/min; run time: 45 min; detection wavelength: 354 or 254 nm; injection volume 50 μL. Importantly, grass pollen extracts were diluted 5 times in methanol before analysis in order to solubilize both flavonoid glycosides and flavonoid aglycones, the latter being hardly soluble in water.
Analysis of samples was performed using the HPLC method described above for the detection of flavonoids.
As (a) the sum of all peaks areas was rather well conserved and (b) the decrease of a flavonoid diglucoside-corresponding peak was related to the increase or appearance of flavonoid monoglycoside and/or aglycone-corresponding peak(s), it could be considered that the ratio between the two peaks areas is equivalent to the molar ratio of the corresponding flavonoids. On this basis, the decrease in quercetin-diglucoside leaded to an equal increase in molecules of quercetin-monoglucoside and in molecules of quercetin aglycone.

For series [2], the system named is mouse lymphoma thymidine kinase gene mutation. Kind of series: MLA/TK test of quercetin by Meltz and MacGregor (4-h short term protocol), modelled by equation (2). The series is classed as cell-based. The settings on record: quercetin 0.83-0.86 μg/mL; from data of Meltz and MacGregor. How it is done: To our knowledge, quercetin is the only flavonoid aglycone that was studied in the MLA/TK test, namely in a work by Meltz and MacGregor who used a 4-h short term protocol (Mutat. Res. 1981; 88: 317-324).
The induction ratios that should result from those amounts was deduced from the data of Meltz and MacGregor. Such deduced induction ratios were then compared to the induction ratio actually observed.
The lowest concentration of quercetin tested by Meltz and MacGregor was 10 μg/mL. Therefore, to determine the ratio that should be obtained with the lowest concentration of 0.864 μg/mL or below, the relationship between (a) the concentrations of quercetin tested by Meltz and MacGregor and (b) the corresponding induction ratios they observed was mathematically modelled. Since those ratios started reaching a plateau at the first concentration tested, we choose to use a logarithmic function for such a modelization. Given that the ratio is necessarily of 1 for 0 μg/mL of mutagen (control), the logarithmic function will be of the form: y=a·ln(x+1)+1 (1)
Using the ratios obtained by Meltz and MacGregor for 10, 20 and 30 μg/mL of quercetin allows a mathematical modelization by the following equation with an excellent correlation coefficient (r=0.99): y=3.0822×ln(x+1)+1 (2).

For series [3] the following is noted: other in vitro genotoxic tests; cited from earlier work.

Consider `O=c1c(O[C@@H]2O[C@H](CO)[C@@H](O)[C@H](O)[C@H]2O)c(-c2ccc(O[C@@H]3O[C@H](CO)[C@@H](O)[C@H](O)[C@H]3O)c(O)c2)oc2cc(O)cc(O)c12` [quercetin-diglucoside, quercetin-3,4′-diglucoside], for which the “share deglycosylated into quercetin (aglycone)” value in series [1] is around 20%.

For the compound `O=c1c(O)c(-c2ccc(O)c(O)c2)oc2cc(O)cc(O)c12` [quercetin], in series [2], the “induction ratio interpolated with equation (2)” value turned out to be 2.9. The “genotoxicity rank among flavonoid aglycones” value in series [3] was “the most genotoxic flavonoid aglycone”.
